Test results published in US10137112B2, “Methods for treating hyperuricemia in patients with gout using halofenate or halofenic acid and a second urate-lowering agent” (CymaBay Therapeutics, Inc., priority 2011, dated 2018).
Where “and” joins values, the source holds several entries; their conditions need not be identical. Equal values may be shown once.

Assays:
[1] = test system: serum uric acid (sUA)
Procedure: A randomized, double-blind, placebo-controlled study to evaluate the safety and efficacy of daily oral doses of between 400 to 600 mg of arhalofenate (i.e., (−)-halofenate) in combination with 300 mg oral doses of allopurinol was conducted in gout patients with inadequate hypouricemic (uric acid lowering) response to allopurinol alone.
Patients who met the final eligibility criteria were randomized to each of 3 study arms in the following manner (1:1:1):
Arhalofenate 400 mg (plus allopurinol 300 mg)
Arhalofenate 600 mg (plus allopurinol 300 mg)
Placebo (plus allopurinol 300 mg)
The serum uric acid (sUA) levels were assessed at Day 1, prior to giving blinded study medication, and at Visits Week 2, 3, and 4.
Patients in all treatment groups also took allopurinol 300 mg once daily orally starting at Week −3 during the run-in and continuing through Week 4.
The randomized treatment regimens were as follows (Day 1 through Week 4):
Treatment Group #1: Arhalofenate 400 mg (plus allopurinol)
Treatment Group #2: Arhalofenate 600 mg (plus allopurinol)
Treatment Group #3: Placebo (plus allopurinol)
The effects of each of the three treatment groups were assessed as the change in sUA from baseline to the end of the treatment period for the following endpoints:
Percent change in sUA from baseline at Week 4 of treatment
The proportion of patients achieving a sUA<6 mg/dL at week 4 of treatment
The proportion of patients achieving a sUA<5 mg/dL at week 4 of treatment
The proportion of patients achieving a sUA<4 mg/dL at week 4 of treatment

[2] = test system: serum uric acid (sUA); experiment: Example 2 clinical trial: arhalofenate 400 mg increasing to 600 mg in combination with febuxostat 80 mg in gout patients with hyperuricemia, serum uric acid; assay type: in vivo, human; details: Day 8, after 1 week febuxostat 80 mg daily
Procedure: This study evaluated the efficacy, safety and tolerability of arhalofenate at 400 mg increasing to 600 mg daily orally in combination with febuxostat 80 mg daily orally in gout patients (per criteria of the American Rheumatism Association) with hyperuricemia.
In addition to colchicine 0.6 mg daily for flare prophylaxis, all patients received febuxostat and arhalofenate in the following order during the Treatment Phase: • Days 1 through 7: febuxostat 80 mg orally once daily (febuxostat only period) • Days 8 through 21: febuxostat 80 mg plus arhalofenate 400 mg orally once daily (febuxostat plus arhalofenate 400 mg period) • Days 22 through 35: febuxostat 80 mg plus arhalofenate 600 mg orally once daily (febuxostat plus arhalofenate 600 mg period)
The sUA levels were assessed before the start of each dosing period (Day 1, Day 8, Day 22) and at the end of the Treatment Phase (Day 36). Serum urate levels were also measured on the last day of each dosing period (Day 7, Day 21, and Day 35) at 4 different time points; pre-dose (fasting), 2 hours post-dose, 6 hours post-dose, and 10 hours post-dose.
Dose/Route/Regimen • Colchicine: 0.6 mg/oral/daily from Day −16 through Day 49 • Febuxostat: 80 mg/oral/daily from Day 1 through Day 35 • Arhalofenate: 400 mg/oral daily from Day 8 through Day 21; 600 mg/oral/daily from Day 22 through Day 35
Duration of Treatment • Phase 1: Screening Phase: 1 to 4 weeks • Phase 2: Run-in/Stabilization Phase: ≥2 weeks • Phase 3: Treatment Phase: 5 weeks • Phase 4: Follow-up Phase: 2 weeks

[3] = test system: serum uric acid; details: monotherapy at 40, 80, 120, 160 and 240 mg/day; cited from earlier work
[4] = placebo + allopurinol 300 mg once daily oral, Week 4 (LOCF), N = 31
[5] = placebo + allopurinol 300 mg once daily oral, Week 4, N = 31
[6] = placebo + allopurinol 300 mg, Week 4

**Q.** For O=c1[nH]cnc2[nH]ncc12 [Placebo + Allopurinol, 1,5-dihydro-4H-pyrazolo [3,4-d]pyrimidin-4-one], which “% Change from Baseline in Uric Acid, Mean” value [1, 4] is on record?
**A.** −9.5%

**Q.** And the “% Change from Baseline in Uric Acid, Median” value [1, 4]?
**A.** −8.7%

**Q.** What about the “Uric Acid at End of Treatment (LOCF), Mean” value [1, 5] of the same molecule?
**A.** 6.3 mg/dL

**Q.** And the “Uric Acid at End of Treatment (LOCF), Median” value [1, 5]?
**A.** 6.2 mg/dL

**Q.** And the “patients with sUA<4.0 mg/dL by End of Treatment” value [1, 6]?
**A.** 1 patients

**Q.** What about the “patients with sUA<5.0 mg/dL by End of Treatment” value [1, 6] of the same molecule?
**A.** 4 patients

**Q.** And the “patients with sUA<6.0 mg/dL by End of Treatment” value [1, 6]?
**A.** 11 patients

**Q.** Which results are given for Cc1nc(-c2ccc(OCC(C)C)c(C#N)c2)sc1C(=O)O [febuxostat, 2-(3-cyano-4-isobutoxyphenyl)-4-methyl-1,3-thiazole-5-carboxylic acid]?
**A.** mean absolute reduction in sUA from Day 1 [2]: -4.3 mg/dL; mean percent reduction in sUA from Day 1 [2]: −47.8%; Patients reached target: No, sUA < 3.0 mg/dL ([2]; 11 patients): 11 patients; Patients reached target: No, sUA < 4.0 mg/dL ([2]; 11 patients): 10 patients; Patients reached target: No, sUA < 5.0 mg/dL ([2]; 11 patients): 5 patients; Patients reached target: No, sUA < 6.0 mg/dL ([2]; 11 patients): 0 patients; Patients reached target: Yes, sUA < 3.0 mg/dL ([2]; 11 patients): 0 patients; Patients reached target: Yes, sUA < 4.0 mg/dL ([2]; 11 patients): 1 patients; Patients reached target: Yes, sUA < 5.0 mg/dL ([2]; 11 patients): 6 patients; Patients reached target: Yes, sUA < 6.0 mg/dL ([2]; 11 patients): 11 patients; Proportion of patients reached target, sUA < 3.0 mg/dL ([2]; 11 patients): 0.00%; Proportion of patients reached target, sUA < 4.0 mg/dL ([2]; 11 patients): 9% and 9.09%; Proportion of patients reached target, sUA < 5.0 mg/dL ([2]; 11 patients): 55% and 54.55%; Proportion of patients reached target, sUA < 6.0 mg/dL ([2]; 11 patients): 100%

**Q.** For O=c1[nH]cnc2c(CN3C[C@H](CO)[C@@H](O)C3)c[nH]c12 [Ulodesine, 7-(((3R,4R)-3-hydroxy-4-(hydroxymethyl)pyrrolidin-1-yl)methyl)-3H-pyrrolo[3,2-d]pyrimidin-4(5H)-one], which “effect on serum uric acid in gout patients” value [3] is on record?
**A.** rapidly and significantly reduced serum uric acid
